# Measured values as given in patent publication US11504425B2, “Amphiphilic oligodeoxynucleotide conjugates as adjuvant enhancers” (WAYNE STATE UNIVERSITY, priority 2019, dated 2022).
# How the values were obtained:
# [1] = test system: TLR7-mediated NF-κB activation in Raw-Blue reporter cells; experiment: Raw-Blue NF-κB/SEAP reporter stimulation with TLR7 ligands; type: cell-based, murine
# Method: (§1) HEK-Blue™-mTLR7, mTLR8, hTLR7, hTLR8, and RAW-Blue™ cells were purchased from InvivoGen and were used to evaluate bioactivities of lipo ODNs and TLR 7/8 ligands in vitro. All these cell lines were cultured with DMEM supplemented with 10% FBS, 1% P/S and 100 μg/mL Normocin at 37° C. with 5% CO2. […] After incubating for 24 h, SEAP levels were quantified by developing supernatants with QuantiBlue™ substrate for 1 h and reading absorption at 620 nm, following manufacturer's instructions.
# Following subcutaneous injection, lipid-modified oligonucleotides efficiently accumulated in the draining lymph nodes by binding and trafficking with endogenous albumin protein (Liu et al., Nature 507, 519-522, 2014; Yu et al., Pharmaceutical Res. 35: 56, 2018). Inspired by that prior work, the current study was aimed to take advantage of lipid functionalization in other oligonucleotide-based TLR inhibitors to further expand the pool of lipo suppressive ODNs. The therapeutic efficacy of lipid-modified IRS 954 in suppressing TLR7-mediated immune activation and alleviating the severity of SLE was investigated. Imiquimod (IMQ; FIG. 1A) was first used to stimulate TLR7-mediated immune activation in Raw-Blue reporter cells. For the initial experiments, Raw Blue cells-a murine RAW 264.7 macrophage cell line which expresses secreted embryonic alkaline phosphatase (SEAP) under the control of an NF-κB and AP-1, were used. Raw Blue cells express many toll-like receptors, including TLR-7, TLR-8, and TLR-9. The immunosuppressive capability of unmodified or lipo IRS 954 was determined by quantifying the level of TLR7-induced NF-κB activation.
# mouse TLR7 (mTLR7) = molecular target: T1, mouse TLR7 (mTLR7) (Mus musculus, UniProt P58681); experiment: HEK mTLR7 reporter cells NF-κB/SEAP; type: cell-based; settings: ligands at indicated concentrations + 1 μM ODN, 24 h
# T1 construct: host or cells: HEK-Blue-mTLR7 (HEK293)
# T1 sequence (P58681 27-1050): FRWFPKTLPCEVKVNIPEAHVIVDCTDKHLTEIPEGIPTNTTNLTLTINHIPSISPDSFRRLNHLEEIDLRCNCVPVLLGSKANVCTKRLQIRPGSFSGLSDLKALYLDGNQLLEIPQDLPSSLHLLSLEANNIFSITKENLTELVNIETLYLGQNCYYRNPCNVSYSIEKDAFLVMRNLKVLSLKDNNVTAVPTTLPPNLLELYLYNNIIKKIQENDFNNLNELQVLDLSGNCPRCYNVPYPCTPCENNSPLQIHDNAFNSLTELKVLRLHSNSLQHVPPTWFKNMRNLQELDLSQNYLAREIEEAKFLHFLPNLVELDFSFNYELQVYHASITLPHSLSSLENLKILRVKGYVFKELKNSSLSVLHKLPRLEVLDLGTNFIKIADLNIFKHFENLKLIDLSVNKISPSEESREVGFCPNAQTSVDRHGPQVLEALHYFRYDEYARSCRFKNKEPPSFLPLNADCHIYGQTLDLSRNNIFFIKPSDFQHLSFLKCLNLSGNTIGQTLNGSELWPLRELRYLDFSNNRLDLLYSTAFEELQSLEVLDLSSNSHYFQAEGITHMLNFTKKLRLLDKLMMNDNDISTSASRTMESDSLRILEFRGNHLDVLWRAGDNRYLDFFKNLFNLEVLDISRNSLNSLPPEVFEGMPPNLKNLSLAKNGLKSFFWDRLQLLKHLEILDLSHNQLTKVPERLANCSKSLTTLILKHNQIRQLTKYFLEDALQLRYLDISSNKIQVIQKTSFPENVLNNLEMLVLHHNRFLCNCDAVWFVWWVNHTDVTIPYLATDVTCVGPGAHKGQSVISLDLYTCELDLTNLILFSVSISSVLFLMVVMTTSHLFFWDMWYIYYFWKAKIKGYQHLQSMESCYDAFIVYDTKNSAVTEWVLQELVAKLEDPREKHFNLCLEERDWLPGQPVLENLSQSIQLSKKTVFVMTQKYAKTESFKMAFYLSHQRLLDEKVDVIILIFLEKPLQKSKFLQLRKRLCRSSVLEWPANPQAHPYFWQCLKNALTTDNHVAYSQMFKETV
# Method: as §1
# Raw Blue cells which respond to both murine TLR-7 and TLR-8 are also included to assess the overall modulatory effect. half-maximal effective concentration (EC50) and potency of several classic TLR7/8 ligands were evaluated in murine TLR7 and TLR8 reporter cells.
# Raw-Blue reporter cells = experiment: Cellular uptake and confocal imaging in Raw-Blue cells; type: cell-based, murine
# Method: DC 2.4 cells were cultured with RPMI-1640 supplemented with 10% FBS and 1% P/S; Raw-Blue cells were cultured as previously described. […] After incubation, cells were washed twice with 1×PBS by centrifuge at 800×g for 5 min prior to flow cytometry quantification. To visualize in vitro cellular uptake, DC 2.4 cells or Raw-Blue cells were cultured and incubated under the same experimental conditions and were subjected to confocal imaging by Zeiss LSM 510 microscope. […] Inhibitors: 5 μg/mL Filipin; 50 μM EIPA; 300 mM sucrose were tested.
# human PBMC = experiment: Cytokine secretion by human PBMC (ELISA); type: cell-based; settings: 24 h
# Method: Whole blood was obtained from the Red Cross, where healthy volunteers had provided informed consent to donate blood. Peripheral blood mononuclear cells (PBMC) were isolated by density gradient centrifugation using Histopaque-1077 (Sigma-Aldrich). The mononuclear cells were washed twice with cold PBS (1×) and resuspended in completed RPMI-1640 supplemented with 10% FBS and 1% penicillin/streptomycin. PBMC were seeded at 2×10^6/ml in 200 μL in a 96-well plate.
# Supernatants collected from splenocytes suspension or human PBMC suspension after incubation were separately analyzed for IL-6, IL-12p40, TNF-α, and IFN-α by ELISA following manufacturer's instructions.
substance,measurement,setting,value
5′-TTTTTTTTTTTTTTTTTTTT-3′ [T20],lowering of IMQ-induced NF-κB activation,"[1]; 2 μM IMQ + 1 μM ODN, 24 h",2 folds
same,IMQ-elicited activation with high-dose ODN,"[1]; 2 μM IMQ + 5 μM T20, 24 h",significantly enhanced inhibition in IMQ-elicited activation
same,"overall NF-κB stimulation by IMQ, CL075, R848 in the presence of the ODN","[1]; ligands at indicated concentrations + 1 μM ODN, 24 h",suppressive effect on all the TLR ligands tested
same,"mTLR7 activation by IMQ, CL075, R848 in the presence of the ODN",mouse TLR7 (mTLR7),suppressed the TLR-7 activation
same,colocalization with lysosomes,"Raw-Blue reporter cells; 1 μM FAM-labeled ODN, FBS-supplemented and FBS-free, LysoTracker Red",colocalized with lysosomes regardless of the presence of FBS
same,effect on cellular uptake of FITC-labeled IMDQ,Raw-Blue reporter cells; 2 μM FITC-IMDQ + 1 μM ODN,neither T20 nor lipo T20 increased cellular uptake
same,IFN-α production,human PBMC; CL264 + ODN,completely abrogated IFN-α production
same,IL-12 production,human PBMC; TLR8-506 + ODN,able to augment the IL-12 production
